In patent US8124121B2, “Flavors, flavor modifiers, tastants, taste enhancers, umami or sweet tastants, and/or enhancers and use thereof” (Senomyx, Inc., priority 2003, dated 2012):

Key:
[1] = test system: savory taste, human panelists; test: Umami/savory flavor experiments using human panelists (trained panel, difference from reference); format: in vivo; details: 12 mM MSG + cpd vs reference 12 mM MSG + 100 μM IMP
Procedure: General Panelist Selection: Basic screening of sensory taste testers: Potential panelists were tested for their abilities to rank and rate intensities of solutions representing the five basic tastes. Panelists ranked and rated intensity of five different concentrations of each of the five following compounds: sucrose (sweet), sodium chloride (salty), citric acid (sour), caffeine (bitter), and monosodium glutamate (savory). In order to be selected for participation in testing, panelists needed to correctly rank and rate samples for intensity, with a reasonable number of errors
Preliminary Taste Tests: The panelists selected in the above procedure were deemed qualified for performing Preliminary Taste Testing procedures. The preliminary taste tests are used to evaluate new compounds for intensity of basic tastes and off-tastes. A small group of panelists (n=5) taste approximately 5 concentrations of the compound (range typically between 1-100 μM, in half-log cycles, e.g., 1, 3, 10, 30, and 100 μM) in water and in a solution of 12 mM MSG to evaluate enhancement. Panelists rate the five basic tastes (sweet, salty, sour, bitter, and savory) as well as off-tastes (such as chemical, metallic, sulfur) on a labeled magnitude scale. Samples are served in 10 mL portions at room temperature. The purpose of the test is to determine the highest concentration at which there is no objectionable off-taste, and determine if obvious savory taste or enhancement of savory taste exists at any of the concentrations tested.
Trained Panelist Selection: A trained expert panel was used to further evaluate compounds that had been tested with the preliminary taste test.
Panelists for the trained panel were selected from the larger group of qualifying taste panelists. Panelists were further trained on savory taste by ranking and rating experiments using MSG and IMP combinations. Panelists completed a series of ranking, rating, and difference from reference tests with savory solutions. In ranking and rating experiments, panelists evaluated easy MSG concentrations (0, 6, 18, 36 mM) and more difficult MSG concentrations (3, 6, 12, 18 mM MSG) in water.
Compound testing with Trained Panel: Compounds tested by the trained panel were evaluated in difference from reference experiments. […] Test samples were solutions with varying amounts of MSG, IMP, and the compound.
Compounds were tested against the reference in samples with and without 12 mM MSG. All samples were presented in 10 ml volumes at room temperature. Two sessions were completed for each compound tested to evaluate panel reproducibility.

[2] = target: T1, hT1R1/hT1R3 umami receptor (Homo sapiens, UniProt Q7RTX0+Q7RTX1); test: Umami taste enhancement activity assay (EC50 ratio vs. MSG); format: cell-based
T1 construct: expressed in transfected cells; host or cells: HEK293 derivative stably expressing Gα15, clone I-17, expression induced with mifepristone
T1 sequence (Q7RTX1 21-841): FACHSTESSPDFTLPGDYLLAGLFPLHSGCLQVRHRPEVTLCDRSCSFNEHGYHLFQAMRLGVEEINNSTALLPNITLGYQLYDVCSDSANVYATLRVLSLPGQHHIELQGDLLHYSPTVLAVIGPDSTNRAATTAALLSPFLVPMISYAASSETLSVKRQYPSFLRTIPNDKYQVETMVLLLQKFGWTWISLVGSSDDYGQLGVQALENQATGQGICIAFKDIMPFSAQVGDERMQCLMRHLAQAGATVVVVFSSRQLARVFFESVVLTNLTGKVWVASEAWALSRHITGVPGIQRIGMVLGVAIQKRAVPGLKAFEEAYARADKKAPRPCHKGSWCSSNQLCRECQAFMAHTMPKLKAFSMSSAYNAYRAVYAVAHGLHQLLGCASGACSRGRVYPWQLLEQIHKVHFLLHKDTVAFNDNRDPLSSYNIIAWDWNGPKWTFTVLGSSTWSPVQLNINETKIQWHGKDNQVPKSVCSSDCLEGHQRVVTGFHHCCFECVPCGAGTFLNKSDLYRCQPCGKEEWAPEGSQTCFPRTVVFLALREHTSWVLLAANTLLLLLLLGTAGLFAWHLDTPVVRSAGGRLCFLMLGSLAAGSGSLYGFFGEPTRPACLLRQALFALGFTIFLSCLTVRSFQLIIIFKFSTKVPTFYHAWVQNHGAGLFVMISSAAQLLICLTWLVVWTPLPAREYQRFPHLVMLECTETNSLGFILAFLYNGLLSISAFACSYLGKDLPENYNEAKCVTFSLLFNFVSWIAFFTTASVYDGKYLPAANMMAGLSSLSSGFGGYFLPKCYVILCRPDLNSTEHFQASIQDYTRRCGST
T1 sequence (Q7RTX0 21-852): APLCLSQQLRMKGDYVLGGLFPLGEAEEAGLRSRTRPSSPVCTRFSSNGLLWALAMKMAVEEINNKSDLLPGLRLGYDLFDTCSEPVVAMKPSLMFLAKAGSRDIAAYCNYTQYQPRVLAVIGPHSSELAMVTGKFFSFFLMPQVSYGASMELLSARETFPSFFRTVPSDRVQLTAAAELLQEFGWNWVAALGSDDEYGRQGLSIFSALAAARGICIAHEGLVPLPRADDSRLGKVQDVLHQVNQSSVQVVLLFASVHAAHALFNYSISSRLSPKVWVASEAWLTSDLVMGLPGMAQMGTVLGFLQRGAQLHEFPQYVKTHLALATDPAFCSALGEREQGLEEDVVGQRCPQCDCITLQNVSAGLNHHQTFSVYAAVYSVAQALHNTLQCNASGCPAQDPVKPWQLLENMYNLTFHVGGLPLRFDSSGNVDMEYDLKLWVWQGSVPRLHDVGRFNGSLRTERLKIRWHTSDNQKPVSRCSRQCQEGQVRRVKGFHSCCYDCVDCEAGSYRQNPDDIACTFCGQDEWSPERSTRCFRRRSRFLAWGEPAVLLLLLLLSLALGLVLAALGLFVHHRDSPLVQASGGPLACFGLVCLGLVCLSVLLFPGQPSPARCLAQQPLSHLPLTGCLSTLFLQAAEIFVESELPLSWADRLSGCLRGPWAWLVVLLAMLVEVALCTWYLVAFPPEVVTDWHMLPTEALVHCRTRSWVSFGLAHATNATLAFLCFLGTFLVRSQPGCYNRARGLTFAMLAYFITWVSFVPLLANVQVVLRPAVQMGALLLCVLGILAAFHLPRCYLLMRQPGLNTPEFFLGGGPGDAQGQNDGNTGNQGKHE
Procedure: A series of measurements of the dose response is run in solutions comprising MSG alone, then a second dose response is run with MSG in combination with predetermined amounts of a candidate compound of Formula (I) at the same time.
Typical compound concentrations tested were 30 μM, 10 μM, 3 μM, 1 μM, 0.3 μM, 0.1 μM and 0.03 μM. The relative efficacy of compounds of Formula (I) at enhancing the receptor was determined by calculating the magnitude of a shift in the EC50 for monosodium glutamate. Enhancement was defined as a ratio (EC50R) corresponding to the EC50 of monosodium glutamate, determined in the absence of the test compound, divided by the EC50 of monosodium glutamate, determined in the presence of the test compound.
Stated alternatively, “EC50 ratio” as compared to MSG is calculated based on the following definitions: EC50 Ratio vs. MSG=EC50 (MSG)/EC50(MSG+[Compound]) • wherein “[compound]” refers to the concentration of the compound of Formula (I) used to elicit (or enhance or potentiate) the MSG dose response.

SMILES	Taste Data: concentration of cpd with 12 mM MSG that is as strong as 12 mM MSG + 100 μM IMP [1]	EC50 ratio (enhanced the effectiveness of monosodium glutamate) ([2]; compound present at 0.3 μM)	also measured
COC[C@@H](CC(C)C)NC(=O)c1ccc(OC)c(C)c1 [Example 104, 4-Methoxy-N-(1-methoxymethyl-3-methyl-butyl)-3-methyl-benzamide]	12 mM MSG + 3 μM cpd as strong as		
COC[C@@H](CC(C)C)NC(=O)c1ccc(C)c(C)c1 [Example 71, (R)—N-(1-methoxy-4-methylpentan-2-yl)-3,4-dimethylbenzamide]	12 mM MSG + 3 μM cpd as strong as		
CCCC(CCC)NC(=O)c1ccc2c(c1)OCO2 [Example 1, N-(heptan-4-yl)benzo[d][1,3]dioxole-5-carboxamide]	12 mM MSG + 3 μM cpd as strong as		EC50 ratio (enhanced the effectiveness of monosodium glutamate) ([2]; compound present at 0.03 μM): 6.92
COc1ccc(CNC(=O)C(=O)NCCc2ccccn2)c(OC)c1 [Example 123, N-(2,4-Dimethoxy-benzyl)-N′-(2-pyridin-2-yl-ethyl)-oxalamide]	12 mM MSG + 1 μM cpd as strong as	6.51	
COC(=O)[C@@H](CC(C)C)NC(=O)c1cc(C)c(C)o1 [Example 98, (R)-methyl-2-(2,3-dimethylfuran-5-carboxamido)-4-methylpentanoate]	12 mM MSG + 10 μM cpd as strong as		
COC(=O)[C@@H](CC(C)C)NC(=O)c1ccc2c(c1)OCO2 [Example 6, (R)-methyl 2-(benzo[d][1,3]dioxole-6-carboxamido)-4-methylpentanoate]	12 mM MSG + 10 μM cpd as strong as		EC50 ratio (enhanced the effectiveness of monosodium glutamate) ([2]; compound present at 0.1 μM): 4.9
COc1ccccc1CNC(=O)C(=O)NCCc1ccccn1 [Example 122, N-(2-Methoxy-benzyl)-N′-(2-pyridin-2-yl-ethyl)-oxalamide]		18.85	
COc1ccc(CNC(=O)c2ccccc2-n2cccc2)c(OC)c1 [Example 121, N-(2,4-dimethoxybenzyl)-2-(1H-pyrrol-1-yl)benzamide]			EC50 ratio (enhanced the effectiveness of monosodium glutamate) ([2]; compound present at 1 μM): 11
CCCC(CCC)NC(=O)/C=C/c1ccc(OC)c(OC)c1 [Example 87, 3-(3,4-Dimethoxy-phenyl)-N-(1-propyl-butyl)-acrylamide]		2.4	
CCCC(CCC)NC(=O)c1ccc(OC)cc1C#N [Example 97, 2-cyano-N-(heptan-4-yl)-4-methoxybenzamide]			EC50 ratio (enhanced the effectiveness of monosodium glutamate) ([2]; compound present at 1 μM): 4.52
